Test system: T1, EAH (EAH 1 and EAH 2), ellagitannin-acyl hydrolase identified as alpha-L-arabinofuranosidase
T1 construct: gene abfB; native secreted protein from solid-state fermentation, co-purified mixture; 499 residues each; domains ArabFuran-catal (20-334 / 20-333) and AbfB (352-493)
Experiment: Lineweaver-Burk
Format: biochemical, Aspergillus niger
Settings: mixture of two co-purified isoforms; temperature and pH of kinetics not stated
Source text: Lineweaver-Burk on EAH (EAH 1 and EAH 2), ellagitannin-acyl hydrolase identified as alpha-L-arabinofuranosidase

Km: 6.66 mM
SMILES: COC(=O)c1cc(O)c(O)c(O)c1 [methyl gallate]
